“And” between values parts separate entries of the source, which are not always exact repeats. Identical values can stand only once. Like-named read-outs stand apart in the source and are kept apart here.

In experiment [1] the test system is K-562. The experiment in a line: Calcein AM cytotoxicity, K-562. It is filed as cell-based. The conditions noted are these: read-out: IC 50, K-562. In a few lines:
(§1)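 Cells in DMEM with 10% FCS, pre-incubated 24 h, then exposed to six 4-fold compound dilutions in duplicate for 72 h at 37 °C, 5% CO2. Viability read by Calcein AM fluorescence after 1 h further incubation.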

The test system of experiment [2] is breast carcinoma cell line MCF-7. The experiment in a line: Calcein AM cytotoxicity, MCF7. The conditions noted are these: read-out: IC 50, MCF7. The format is cell-based, human. In a few lines:
as §1

Experiment [3] has as its system T-lymphoblastic leukemia cell line CEM. The experiment in a line: Calcein AM cytotoxicity, CEM. It is filed as cell-based, human. In a few lines:
as §1

Experiment [4] relates to promyelocytic HL-60 leukemia. The experiment in a line: Calcein AM cytotoxicity, HL60. It is filed as cell-based, human. The conditions noted are these: read-out: IC 50, HL60. The method, boiled down:
as §1

The test system of experiment [5] is human diploid fibroblasts (HCA cells). The experiment in a line: Senescence, beta-galactosidase staining of human diploid fibroblasts. It is filed as cell-based. The conditions noted are these: for SENESCENT CELLS (%) HCA25: passage 25; for SENESCENT CELLS (%) HCA45: passage 45; for SENESCENT CELLS (%) HCA80: passage 80. The method, boiled down:
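HCA fibroblasts at passages 25, 45 and 80 were fixed for 5 min at room temperature in 2% formaldehyde/0.2% glutaraldehyde. They were then incubated at 37 °C without CO2 for 1 to 16 hours with X-gal 1 mg/ml, 5 mM ferri- and ferrocyanide and 2 mM MgCl2 in citric/phosphate buffer, pH 6.0. Blue-stained cells were scored.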

Experiment [6] deals with B16-F0 melanoma. In words: Calcein AM cytotoxicity, B16-F0. The format is cell-based. The conditions noted are these: Mus musculus, B16F0, 72 h, read-out: IC 50, B16-F0. The method, boiled down: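 Cells pre-incubated 24 hours, then exposed for 72 hours at 37° C. to six 4-fold compound dilutions in duplicate, top well concentration usually 266.7 μM. Viability read by Calcein AM fluorescence after 1 hour; GI50 taken from dose-response curves of survival relative to control wells.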

As to `Fc1ccccc1CNc1ncnc2nc[nH]c12` [6-(2-fluorobenzylamino)purine], the IC50 in experiment [1] (72 hours) was 136 µM and 70.7 µM; in experiment [2] (72 hours, listed as 2F BAP), 109 µM and 128 µM; in experiment [3] (72 hours, listed as 2F BAP) it was 136 µM and 98.9 µM; in experiment [4] (72 hours, listed as 2F BAP), greater than 167 µM. The “SENESCENT CELLS (%) HCA25” value in experiment [5] turned out to be 4%. In addition, in experiment [5], the “SENESCENT CELLS (%) HCA45” value was found to be 3%. The “SENESCENT CELLS (%) HCA80” value in experiment [5] came to 16%.

`Cc1ccccc1CNc1ncnc2nc[nH]c12` [6-(2-methylbenzylamino)purine]: the IC50 was 157 µM in experiment [1] (Homo sapiens, K562, 72 h); greater than 167 µM in experiment [2] (Homo sapiens, MCF7, 72 h); greater than 167 µM in experiment [3] (Homo sapiens, 72 h); greater than 167 µM in experiment [4] (Homo sapiens, HL-60, 72 h).

Take `Fc1cccc(CNc2ncnc3nc[nH]c23)c1` [6-(3-fluorobenzylamino)purine]: in experiment [5], the “SENESCENT CELLS (%) HCA25” value is on record as 3%, the “SENESCENT CELLS (%) HCA45” value amounted to 3% and the “SENESCENT CELLS (%) HCA80” value amounted to 15%.

As for `Ic1cccc(CNc2ncnc3nc[nH]c23)c1` [6-(3-iodobenzylamino)purine], the IC50 in experiment [1] (Homo sapiens, K562, 72 h) is 94.7 µM; in experiment [2] (Homo sapiens, MCF7, 72 h), 130 µM; in experiment [3] (Homo sapiens, 72 h), 125 µM; in experiment [4] (Homo sapiens, HL-60, 72 h) it was 133 µM.

In the case of `COc1cccc(CNc2ncnc3nc[nH]c23)c1` [6-(3-methoxybenzylamino)purine], the IC50 in experiment [2] (72 hours, listed as 3MeO BAP) is 150 µM; in experiment [6] it was 41.5 µM.

On to `Cc1ccc(CNc2ncnc3nc[nH]c23)cc1` [6-(4-methylbenzylamino)purine], for which the IC50 was 72.8 µM in experiment [1] (Homo sapiens, K562, 72 h); 82.8 µM in experiment [2] (Homo sapiens, MCF7, 72 h); 72.1 µM in experiment [3] (Homo sapiens, 72 h); 88 µM in experiment [4] (Homo sapiens, HL-60, 72 h).

`Oc1cccc(CNc2ncnc3nc[nH]c23)c1` [meta-topolin, 6-(3-hydroxybenzylamino)purine]: in experiment [1] (72 hours, listed as MT), the IC50 is 140 µM. Besides, the IC50 in experiment [6] is 90.6 µM. Further, in experiment [5], the “SENESCENT CELLS (%) HCA25” value is reported as 5%, the “SENESCENT CELLS (%) HCA45” value is listed as 3% and the “SENESCENT CELLS (%) HCA80” value is 22%.

For `Oc1ccccc1CNc1ncnc2nc[nH]c12` [ortho-topolin, 6-(2-hydroxybenzylamino)purine], the IC50 in experiment [6] is 150 µM. Further, in experiment [5], the “SENESCENT CELLS (%) HCA25” value came out at 3%, the “SENESCENT CELLS (%) HCA45” value came out at 4% and the “SENESCENT CELLS (%) HCA80” value worked out at 17%.

The record behind these values is patent publication US8552013B2, “Heterocyclic compounds based on N6-substituted adenine, methods of their preparation, their use for preparation of drugs, cosmetic preparations and growth regulators, pharmaceutical preparations, cosmetic preparations and growth regulators containing these compounds” (USTAV Experimentalni Botaniky Akademie Ved Ceske Republiky, priority 2001, dated 2013).
